Publication PMC9457533, “Study on Metronidazole Acid-Base Behavior and Speciation with Ca^2+ for Potential Applications in Natural Waters” (Molecules, 2022)
“And” between values parts separate entries of the source, which are not always exact repeats. Identical values can stand only once.

How the values were obtained:
[1] = UV-Vis spectrophotometric titrations: formation constant of Ca^2+-MNZ species; format: physicochemical; details: Ca + L + H = CaLH; t = 25 °C, I = 0.15 mol L^-1
Protocol: (§1) As widely reported in the literature, the high ability of L to absorb in the UV range has often been used to determine quantitatively and qualitatively this antibiotic in waters. Various spectrophotometric titrations on solutions containing L and M-L mixtures were performed to investigate L spectral behavior and to confirm the protonation and formation constants values as well as the speciation model obtained by potentiometry, as already shown with other systems.
(§2) The spectrophotometric titrations were performed with a Varian Cary 50 UV-Vis spectrophotometer characterized by an optical fiber with a fixed 1 cm path length. The system was interfaced to a PC by the Varian Cary WinUV software. For all titrations, a Thermo-Fisher glass electrode was also used to record simultaneously the couple of data absorbance (A) and e.m.f. (mV) vs. volume of titrant (mL), for each titration point. The analyses were carried out in a thermostated cell, in which N2 was bubbled in solution to avoid CO2 and O2.
The protonation constant of MNZ (L), formation constant values of Ca^2+(M)-MNZ (L), and titration parameters (analytical concentration of the reagents, standard potential E^0, junction potential) were determined by using BSTAC and STACO programs. […] The speciation diagrams and the formation percentage of the species are determined by the Hyss program.

[2] = Speciation simulation of MNZ under sea water conditions; details: pH = 8.1, I = 0.7 mol L^-1, t = 25 °C
Protocol: In order to assess the relevance of the Ca^2+ complex in sea water conditions, the average concentrations of MNZ (L), Ca^2+, Mg^2+, and other divalent cations such as Cu^2+ and Zn^2+, were considered. With the use of the thermodynamic data here determined, it is possible to carry out simulations in sea water conditions. More in detail, the protonation constants of L and the stability constants of Ca^2+-L complex species were calculated by data in Table 3 at I = 0.7 mol L^−1, i.e., the mean ionic strength of sea water. For Cu^2+-L and Zn^2+-L complexes, data of formation constants determined by us and not yet published were used. […] Formation constant values of Cu^2+- and Zn^2+-L species under sea water conditions, belonging to our unpublished study, are summarized in the Supplementary Materials.
(§3) The protonation constant of MNZ (L), formation constant values of Ca^2+(M)-MNZ (L), and titration parameters (analytical concentration of the reagents, standard potential E^0, junction potential) were determined by using BSTAC and STACO programs. LIANA program has provided the parameters characterizing the dependence of the protonation and formation constant values on the temperature and ionic strength. More details on software are present in ref. [59]. ^1H NMR data were processed by HypNMR software, which allows for calculating protonation and formation constant values and the individual chemical shift of species through the observed signals and assuming fast mutual exchange in the NMR time scale. UV-Vis data are processed by the HypSpec program, which allows refining of the protonation and formation constant as well as the molar absorption coefficient values (ε) of the species. The speciation diagrams and the formation percentage of the species are determined by the Hyss program.

[3] = Dependence of Ca^2+-MNZ formation constant on temperature (van't Hoff equation), thermodynamic parameters; format: physicochemical; details: Ca + LH = CaLH; t = 298.15 K, I = 0.15 mol L^-1 NaCl
Protocol: The protonation and formation constants values acquired at the three different temperatures of 15, 25, and 37 °C, listed in Table 1, were used to study their dependence on temperature, as already shown for several systems. The data obtained by the potentiometric measurements were analyzed using the following van’t Hoff equation:logβT = logβθ + ΔH^0(1/θ − 1/T) R ln 10(6) where logβT is the stability constant at a certain temperature (expressed in kelvin), while logβθ is the stability constant at t = 298.15 K, and R is the universal gas constant expressed as 8.314 J K^−1 mol^−1. Using the equation just reported, it was possible to calculate the protonation and formation enthalpies change values, together with Gibbs free energy and entropy changes.
as §3

[4] = Dependence of protonation constants on ionic strength (Debye-Hückel type equation); format: physicochemical; details: t = 25 °C, NaCl; for log^Tβ (constant at infinite dilution): extrapolated to I = 0 mol L^-1
Excerpt: The choice to carry out the experiments at various ionic strengths made it possible to study the dependence of the values of the protonation and formation constants on the ionic strength, expressed by a Debye-Hückel type equation, reported below: (5) logβ=logβ^T − 0.51 z* I/1 + 1.5 I + CI where β^T is the protonation constant at infinite dilution, z* is the parameter that refers to the charges present in the solution corresponding to ∑z^2reagents − ∑z^2products, and C refers to the empirical parameter that depends on the stoichiometric coefficients and on the charges. Using Equation (5) and equilibrium constants at various ionic strength values, the formation constants extrapolated to I = 0 mol L^−1, together with the empirical parameter C, were obtained.
as §3

[5] = UV-Vis spectrophotometric titrations: protonation constants of MNZ; format: physicochemical; details: t = 25 °C; for logβ UV: I = 0.15 mol L^-1
Protocol: as §1, §2, §3

[6] = CL = 8·10^-10 mol L^-1, CZn = 1.5·10^-9 mol L^-1

Cc1ncc([N+](=O)[O-])n1CCO [MNZ, 2-Methyl-5-nitroimidazole-1-ethanol]
logβ UV [1]: 14.17(2)
percentage of LH species ([2]; CL = 8·10^-10 mol L^-1): 22%
percentage of CaLH species ([2]; CL = 8·10^-10 mol L^-1, CCa = 0.01 mol L^-1): 29%
percentage of CuL species ([2]; CL = 8·10^-10 mol L^-1, CCu = 4·10^-5 mol L^-1): 10%
percentage of ZnL species [2, 6]: 4%
percentage of ZnLOH species [2, 6]: 35%
TΔS [3]: -4.78 kcal/mol
ΔG [3]: -3.39 kcal/mol
ΔH [3]: -34 kJ mol^-1 and −34(8) kJ mol^-1
C (empirical parameter for dependence on ionic strength, Equation (5)) ([4]; L + 2H = LH2): 1.16(6)
log^Tβ (constant at infinite dilution) ([4]; L + 2H = LH2): 14.4(1)
C (empirical parameter for dependence on ionic strength, Equation (5)) ([4]; L + H = LH): 0.7(2) ^1
log^Tβ (constant at infinite dilution) ([4]; L + H = LH): 12.0(3) ^1
logβ UV ([5]; L + 2H = LH2): 14.20(6)
logβ UV ([5]; L + H = LH): 11.73(2) ^1
logK2 (protonation constant) ([5]; UV spectrophotometry, I = 0.15 mol L^-1 in NaCl): 2.47
